Experimental data: US20230037975A1, “USE OF C[…] IN ORAL CARE COMPOSITIONS TO INHIBIT THE GROWTH OF P. GINGIVALIS” (Demetrix, Inc., priority 2021, published 2023)
Values after ≈ are worked out from the molar mass of the structure shown. Where two headings read alike, the source gives them in different places.

System: Porphyromonas gingivalis
Assay: minimum inhibitory concentration (MIC) assay against P. gingivalis
Format: cell-based
Protocol: To determine the ability of the cannabinoid compounds described herein to reduce, or eliminate, P. gingivalis a minimum inhibitory concentration (“MIC”) assay was performed. The assay was performed by Charles River Laboratories International (Wilmington, Mass.) in accordance with industry standards.

[1] = Porphyromonas gingivalis; against P. gingivalis; Table 1; read-out: MIC
[2] = Porphyromonas gingivalis; read-out: minimum inhibitory concentration (MIC) against P. gingivalis
[3] = Porphyromonas gingivalis, read-out: minimum inhibitory concentration (MIC) against P. gingivalis

| Molecule | MIC [1] [µg/mL] | MIC [2] [µg/mL] | minimum inhibitory concentration (MIC) against P. gingivalis [µg/mL] | MIC (against P. gingivalis; Table 1) [µg/mL] | MIC [3] [µg/mL] |
| --- | --- | --- | --- | --- | --- |
| CCCCCc1cc(O)c2c(c1)OC(C)(CCC=C(C)C)C=C2 (stereo not drawn) [CBC, cannabichromene] | 1.56 (≈ 4.96 µM) | 1.56 (≈ 4.96 µM) |  |  |  |
| CCCCCc1cc2c(c(O)c1C(=O)O)C=CC(C)(CCC=C(C)C)O2 (stereo not drawn) [CBCA, cannabichromenic acid] |  |  | 3.125 (≈ 8.72 µM) | 3.125 (≈ 8.72 µM) |  |
| C=C(C)[C@@H]1CCC(C)=C[C@H]1c1c(O)cc(CCCCC)cc1O [CBD, cannabidol] |  |  | 3.125 (≈ 9.94 µM) | 3.125 (≈ 9.94 µM) |  |
| C=C(C)[C@@H]1CCC(C)=C[C@H]1c1c(O)cc(C)cc1O [CBD-C1, Cannabidiorcol] |  |  | 100 (≈ 387 µM) | 100 (≈ 387 µM) |  |
| C=C(C)[C@@H]1CCC(C)=C[C@H]1c1c(O)cc(CC)cc1O [CBD-C2, Cannabidol-C2] |  |  | 6.25 (≈ 22.9 µM) | 6.25 (≈ 22.9 µM) |  |
| C=C(C)[C@@H]1CCC(C)=C[C@H]1c1c(O)cc(CCCC)cc1O [CBD-C4, cannabidol-C4] |  |  | 3.125 (≈ 10.4 µM) | 3.125 (≈ 10.4 µM) |  |
| C=C(C)[C@@H]1CCC(C)=C[C@H]1c1c(O)cc(CCCCC)c(C(=O)O)c1O [CBDA, cannabidiolic acid] | 0.39 (≈ 1.09 µM) |  |  |  | < 1 |
| C=C(C)[C@@H]1CCC(C)=C[C@H]1c1c(O)cc(CCC)cc1O [CBDV, cannabidivarin] | 3.12 (≈ 10.9 µM) | 3.12 (≈ 10.9 µM) |  |  |  |
| C=C(C)[C@@H]1CCC(C)=C[C@H]1c1c(O)cc(CCC)c(C(=O)O)c1O [CBDVA, cannabidivarinic acid] |  |  | 25 (≈ 75.7 µM) | 25 (≈ 75.7 µM) |  |
| CCCCCc1cc(O)c(C/C=C(\C)CCC=C(C)C)c(O)c1 [CBG, cannabigerol] | 0.78 (≈ 2.46 µM) |  |  |  | < 1 |
| CCCCc1cc(O)c(CC=C(C)CCC=C(C)C)c(O)c1 [CBG-C4, cannabigerol butyl] |  |  | 3.125 (≈ 10.3 µM) | 3.125 (≈ 10.3 µM) |  |
| CCCCCc1cc(O)c(C/C=C(\C)CCC=C(C)C)c(O)c1C(=O)O [CBGA, cannabigerolic acid] | ≤ 0.097 |  |  |  | < 1 |
| CCCCc1cc(O)c(C/C=C(\C)CCC=C(C)C)c(O)c1C(=O)O [CBGA-C4, cannabigerolic acid butyl] |  |  | 6.25 (≈ 18 µM) | 6.25 (≈ 18 µM) |  |
| CCCc1cc(O)c(C/C=C(\C)CCC=C(C)C)c(O)c1 [CBGV, cannabigerivarin] |  |  | 3.125 (≈ 10.8 µM) | 3.125 (≈ 10.8 µM) |  |
| CCCc1cc(O)c(C/C=C(\C)CCC=C(C)C)c(O)c1C(=O)O [CBGVA, cannabigerovarinic acid] |  |  | 25 (≈ 75.2 µM) | 25 (≈ 75.2 µM) |  |
| CCCCCc1cc(O)c2c(c1)OC1(C)CCC3C1C2C3(C)C (stereo not drawn) [CBL, cannabicyclol] | > 200 | > 200 |  |  |  |
| CCCCCc1cc2c(c(O)c1C(=O)O)C1C3C(CCC3(C)O2)C1(C)C (stereo not drawn) [CBLA, cannabicyclolic acid] |  |  | 3.125 (≈ 8.72 µM) | 3.125 (≈ 8.72 µM) |  |
| CCCCCc1cc(O)c2c(c1)OC(C)(C)c1ccc(C)cc1-2 [CBN, cannabinol] | 3.12 (≈ 10.1 µM) | 3.12 (≈ 10.1 µM) |  |  |  |
| CCCCCc1cc2c(c(O)c1C(=O)O)-c1cc(C)ccc1C(C)(C)O2 [CBNA, cannabinolic acid] |  |  | 3.125 (≈ 8.82 µM) | 3.125 (≈ 8.82 µM) |  |
| (+)-cannabidiol [(+)-CBD] |  |  |  | 0.78 |  |
